These results are taken from patent US8822444B2, “Hepatitis C virus inhibitors” (Bristol-Myers Squibb Company, priority 2009, dated 2014).

The subject of the experiment is HCV 1b genotype. Briefly: HCV Replicon assay. Conditions: HCV 1b genotype replicon. It is filed as cell-based. The method, then:
An HCV Replicon assay was utilized in the present disclosure, and was prepared, conducted and validated as described in commonly owned PCT/US2006/022197 and in O'Boyle et. al. Antimicrob Agents Chemother. 2005 April; 49(4):1346-53. Assay methods incorporating luciferase reporters have also been used as described (Apath.com).
HCV-neo replicon cells and replicon cells containing mutations in the NS5A region were used to test the currently described family of compounds. The compounds were determined to have more than 10-fold less inhibitory activity on cells containing mutations than wild-type cells. Thus, the compounds of the present disclosure can be effective in inhibiting the function of the HCV NS5A protein and are understood to be as effective in combinations as previously described in application PCT/US2006/022197 and commonly owned WO/04014852. Further, the compounds of the present disclosure can be effective against the HCV 1b genotype. It should also be understood that the compounds of the present disclosure can inhibit multiple genotypes of HCV. […] In one embodiment, compounds of the present disclosure are inhibitory versus 1a, 1b, 2a, 2b, 3a, 4a, and 5a genotypes.
For orientation: Replicon systems follow genome replication, usually without infectious particles.

[1] abbreviates: Hepatitis C virus, read-out: 1b EC50 Range.

The structures appear in SMILES notation. Like-named read-outs stand apart in the source and are kept apart here.

A word on the EC50: it is the concentration that produces a half-maximal response.

For `COC(=O)N[C@H](C(=O)N1CCC[C@H]1c1nc(C2CCC(C3CCC(c4c[nH]c([C@@H]5CCCN5C(=O)[C@@H](NC(=O)OC)[C@@H](C)OC)n4)CC3)CC2)c[nH]1)[C@@H](C)OC` (stereo partly drawn) [QC-8, methyl ((1S,2R)-2-methoxy-1-(((2S)-2-(4-(4′-(2-((2S)-1-(N-(methoxycarbonyl)-O-methyl-L-threonyl)-2-pyrrolidinyl)-1H-imidazol-4-yl)-1,1′-bi(cyclohexyl)-4-yl)-1H-imidazol-2-yl)-1-pyrrolidinyl)carbonyl)propyl)carbamate], the EC50 is 2.4 nM (Hepatitis C virus, read-out: 1b EC50 (in nM or range)) and 100 to 999 nM under setting [1]. Consider `COC(=O)N[C@@H](C)C(=O)N1CCC[C@H]1c1nc(C2=CCC(c3ccc(-c4c[nH]c([C@@H]5CCCN5C(=O)[C@H](C)NC(=O)OC)n4)cc3)CC2)c[nH]1` (stereo partly drawn) [QC-10, methyl ((1S)-2-((2S)-2-(4-(4-(4-(2-((2S)-1-(N-(methoxycarbonyl)-1-alanyl)-2-pyrrolidinyl)-1H-imidazol-4-yl)-3-cyclohexen-1-yl)phenyl)-1H-imidazol-2-yl)-1-pyrrolidinyl)-1-methyl-2-oxoethyl)carbamate], for which the EC50 (read-out: 1b EC50 Range) was in the range of 4.57 to 99 nM.

`COC[C@H](NC(=O)OC)C(=O)N1CCC[C@H]1c1nc(C2=CCC(c3ccc(-c4c[nH]c([C@@H]5CCCN5C(=O)[C@H](COC)NC(=O)OC)n4)cc3)CC2)c[nH]1` (stereo partly drawn) [QC-11, methyl ((1S)-2-((2S)-2-(4-(4-(4-(2-((2S)-1-(N-(methoxycarbonyl)-O-methyl-L-seryl)-2-pyrrolidinyl)-1H-imidazol-4-yl)-3-cyclohexen-1-yl)phenyl)-1H-imidazol-2-yl)-1-pyrrolidinyl)-1-(methoxymethyl)-2-oxoethyl)carbamate]: under setting [1], the EC50 was in the range of 4.57 to 99 nM.

As to `COC(=O)N[C@H](C(=O)N1CCC[C@H]1c1nc(C2=CCC(c3ccc(-c4c[nH]c([C@@H]5CCCN5C(=O)[C@@H](NC(=O)OC)[C@@H](C)OC)n4)cc3)CC2)c[nH]1)[C@@H](C)OC` (stereo partly drawn) [QC-12, methyl ((1S,2R)-2-methoxy-1-(((2S)-2-(4-(4-(4-(2-((2S)-1-(N-(methoxycarbonyl)-O-methyl-L-threonyl)-2-pyrrolidinyl)-1H-imidazol-4-yl)-3-cyclohexen-1-yl)phenyl)-1H-imidazol-2-yl)-1-pyrrolidinyl)carbonyl)propyl)carbamate], under setting [1], the EC50 is 4.57 to 99 nM. For `COC(=O)N[C@H](C(=O)N1CCC[C@H]1c1nc(-c2ccc(N3CCC(c4c[nH]c([C@@H]5CCCN5C(=O)[C@@H](NC(=O)OC)C(C)C)n4)CC3)cc2)c[nH]1)C(C)C` [QC-13, methyl ((1S)-1-(((2S)-2-(4-(1-(4-(2-((2S)-1-((2S)-2-((methoxycarbonyl)amino)-3-methylbutanoyl)-2-pyrrolidinyl)-1H-imidazol-4-yl)phenyl)-4-piperidinyl)-1H-imidazol-2-yl)-1-pyrrolidinyl)carbonyl)-2-methylpropyl)carbamate], the EC50 under setting [1] is 4.57 to 99 nM. On the same count and under the same terms, the result for `COC[C@H](NC(=O)OC)C(=O)N1CCC[C@H]1c1nc(-c2ccc(N3CCC(c4c[nH]c([C@@H]5CCCN5C(=O)[C@H](COC)NC(=O)OC)n4)CC3)cc2)c[nH]1` [QC-14, methyl ((1S)-2-((2S)-2-(4-(4-(4-(2-((2S)-1-(N-(methoxycarbonyl)-O-methyl-L-seryl)-2-pyrrolidinyl)-1H-imidazol-4-yl)-1-piperidinyl)phenyl)-1H-imidazol-2-yl)-1-pyrrolidinyl)-1-(methoxymethyl)-2-oxoethyl)carbamate] reads 100 to 999 nM; that for `COC(=O)N[C@H](C(=O)N1CCC[C@H]1c1nc(-c2ccc(N3CCC(c4c[nH]c([C@@H]5CCCN5C(=O)[C@@H](NC(=O)OC)C(C)(C)C)n4)CC3)cc2)c[nH]1)C(C)(C)C` [QC-15, methyl ((1S)-1-(((2S)-2-(4-(1-(4-(2-((2S)-1-((2S)-2-((methoxycarbonyl)amino)-3,3-dimethylbutanoyl)-2-pyrrolidinyl)-1H-imidazol-4-yl)phenyl)-4-piperidinyl)-1H-imidazol-2-yl)-1-pyrrolidinyl)carbonyl)-2,2-dimethylpropyl)carbamate], 4.57 to 99 nM. Consider `COC(=O)N[C@H](C(=O)N1CCC[C@H]1c1nc(-c2ccc(C3CCC(c4c[nH]c([C@@H]5CCCN5C(=O)[C@@H](NC(=O)OC)C(C)C)n4)CC3)cc2)c[nH]1)C(C)C` (stereo partly drawn) [QC-17, methyl ((1S)-1-(((2S)-2-(4-(4-(4-(2-((2S)-1-((2S)-2-((methoxycarbonyl)amino)-3-methylbutanoyl)pyrrolidin-2-yl)-1H-imidazol-4-yl)phenyl)cyclohexyl)-1H-imidazol-2-yl)pyrrolidin-1-yl)carbonyl)-2-methylpropyl)carbamate], for which, where the note is “read-out: 1b EC50 Range”, the EC50 is 2 to 4.57 nM.
